Columns and labels:
human GLP-1R receptor = target: T1, human GLP-1R receptor (Homo sapiens, UniProt P43220, L260F); assay: CHOK1 GLP-1R cAMP Assay; assay type: cell-based; conditions: CHO-K1 cell line stably expressing human GLP-1R (Leu260Phe variant); HTRF cAMP; agonist activity
T1 construct: expressed in transfected cells; host or cells: CHO-K1 (ATCC CCL-61)
Protocol: A cell line stably expressing the human GLP-1R receptor (NM_002062.5, including the naturally-occurring variant Leu260Phe) in a CHO-K1 (ATCC® CCL-61™) was used for assay.
GLP-1 receptor mediated agonist activity was determined in a cell-based assay measuring cyclic adenosine monophosphate (cAMP) levels in cells using Homogeneous Time-Resolved Fluorescence (HTRF) cAMP detection kit (CisBio catalog #62AM4PEC, cAMP Gs Dynamic range kit). The cAMP detection method is based on a competitive immunoassay, in which cAMP produced by the cells and cAMP labeled with the dye d2 compete for binding to a Europium-Cryptate-labeled anti-cAMP antibody. The specific HTRF signal is inversely proportional to the concentration of cAMP.
Compounds were added to individual well in 384 well-assay plates (Greiner #784076) using an Echo (LabCyte) dispenser from 10 mM stocks. Varying concentration of compounds were added to wells, and DMSO was used to normalize each well to a volume of 100 nL. A dose response curve of GLP-1(7-36)NH2 (Bachem H-6795) was included in each run. 5 μL of cAMP concentration response standards are applied in specified wells in the assay plates. Cryo-preserved cells are thawed and resuspended in assay buffer pre-heated to 37° C. (20 mM HEPES pH 7.4, 1× Hank's Balanced Salt Solution (HBSS, Life Technologies #14065) supplemented with 0.1% (w/v) bovine serum albumin (Sigma, A-7030). Cells were centrifuged at 250*g for 5 min at rt, and resuspended in room tempered assay buffer to a final density of 0.16*10^6 cell/mL, to deliver 800 cells/well. 5 μL of assay buffer with 1 mM 3-isobutyl-1-methylxanthin (IBMX; Sigma cat I-7018) was dispensed per well in assay plates using a multidrop combi (Thermo Scientific) subsequently 5 μL of cell suspension was distributed to relevant wells in the assay using a multidrop dispenser. Assay plates were incubated 20 min at rt.
Detection reagents, Europium-Cryptate-labeled anti-cAMP antibody and cAMP labeled with the dye d2, are diluted in lysis buffer, provided by the manufacturer. 5 μL of each detection reagent is supplemented to each assay well using a multidrop dispenser. Assay plates are incubated in the dark for at least one h. The HTRF signal is measured using the HTRF module (excitation: 337 nm, emission A: 665 nm and emission B: 620 nm) in Pherastar FSX (BMG Labtech).
Raw data were converted to pM cAMP using the cAMP standard curve included in each run.
Converted data were further analyzed in Genedata Screener (Genedata) and EC50 determinations were made from agonist dose-response curves analyzed with a curve fitting program using a 4-parameter logistic dose response equation (Equation y=A+((B−A)/1+((C/x)^D))) where A is no stimulation, B is full stimulation, C is the EC50 and D is the Hill slope). The percent effect was determined relative to a saturating concentration of a full GLP-1R agonist (GLP-1(7-36)NH2 has 100% effect in this assay setup).

GLP-1R = target: T2, GLP-1R (Homo sapiens, UniProt P43220); assay: EndoC cAMP Accumulation Assay; assay type: cell-based; conditions: EndoC-βH1 human pancreatic β cell line; HTRF cAMP accumulation
T2 construct: host or cells: EndoC-βH1 human pancreatic beta cell line
T2 sequence (P43220 24-463): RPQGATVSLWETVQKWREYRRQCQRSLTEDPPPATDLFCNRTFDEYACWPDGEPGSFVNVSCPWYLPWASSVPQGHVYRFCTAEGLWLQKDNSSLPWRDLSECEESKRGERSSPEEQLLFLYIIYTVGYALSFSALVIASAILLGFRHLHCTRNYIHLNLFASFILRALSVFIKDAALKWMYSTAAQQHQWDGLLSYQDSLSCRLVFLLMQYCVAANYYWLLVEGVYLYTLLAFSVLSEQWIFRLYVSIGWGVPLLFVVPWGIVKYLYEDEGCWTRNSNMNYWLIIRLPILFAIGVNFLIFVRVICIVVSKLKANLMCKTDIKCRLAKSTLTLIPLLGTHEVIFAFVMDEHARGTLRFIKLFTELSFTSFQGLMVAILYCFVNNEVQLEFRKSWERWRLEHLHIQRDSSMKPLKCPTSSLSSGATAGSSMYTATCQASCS
Text: EndoC cAMP Accumulation Assay
A HTRF cAMP assay (cAMP Gs dynamic kit; CisoBio Cat #62AM4PEJ) was used to identify agonists of GLP-1R in a pancreatic insulinoma cell line (EndoC-⊕H1). […] EndoC-PHlcells have detectable GLP-1R messenger ribonucleic acid (mRNA) as detected by quantitative polymerase chain reaction (qPCR). […] The EndoC-PH1 cell line is a valid model of human beta cells and applicable for screenings to identify novel drug target candidates (Mol. Metab., 2018, 8, 144-157). CisBio HTRF cAMP kits are based on a competitive immunoassay using cryptate-labelled anti-cAMP antibody and d2-labeled cAMP. The detection kit is intended for the direct quantitative determination of cAMP. The specific signal (i.e. energy transfer) is inversely proportional to the concentration of cAMP in the standard or sample. Test compounds (10 mM in DMSO) were diluted into assay buffer (HBSS (Sigma #H8264) supplemented with 25 mM HEPES (Gibco #15630, pH 7.4), 0.1% BSA (Sigma #A3059) and 0.5 mM IBMX (Sigma #I7018) included fresh on the day of the assay) into 96 well U-bottom plates (Greiner #650201). Diluted compounds were transferred to ECHO source polypropylene plates (Labcyte #P-05525) and dose response curves were dispensed acoustically using ECHO 550 into black shallow-well u-bottom 384-well HTRF Assay Plates (Corning 4514).
Cryovials of EndoC-H1 (supplied at 1×10e^7 cells/vial) were used directly for screening. The cryovials and were removed from N2(l) and thawed rapidly in a 37° C. water bath. The cells were resuspended in assay buffer and centrifuged at 300 g for 5 min. Cells were resuspended in assay buffer at the appropriate concentration, typically at 12e5 cells per mL (3000 cells per well, dependent on cell batch) and 2.5 μL diluted cells were added to all wells of destination plate by Multidrop combi reagent dispenser (Thermofisher). The plates were incubated at rt for 30 min. The assay was stopped by adding 2.5 μL anti-cAMP cryptate solution to all wells and 2.5 μL cAMP-d2 solution (both diluted 1:20 in lysis buffer) to columns 1-22 by Combi drop. A volume of 2.5 μL cAMP-d2 solution was added to wells E23 to P24 and 2.5 μL lysis buffer added to wells A23 to D24 by multichannel pipette. The plates were incubated at rt for 1 h and read on an Envision plate reader using excitation wavelength of 320 mn and emission of 590 nm and 660 nm.
Raw data from Envision is converted to % DeltaF according to the manufacturer's instructions. Dose response curves are analysed via 4-Parameter Logistical Analysis and assay plate Z′ values obtained. Samples are graphed as percentage (%) activation plots compared to GIP (1-42, Bachem H-5645) with assay window defined by negative control as basal cell cAMP levels and positive control are defined by maximum GIP (82.5 nM) signal. GLP-1 (7-36 amide, Bachem H-6795) dose response curve was included on all plates.

[1] = target: T3, human phosphodiesterase-3A (Homo sapiens, UniProt Q14432); assay: PDE3 Assay; assay type: biochemical; conditions: human recombinant enzyme expressed in Sf9 cells; formation of 5′AMP from cAMP, SPA
T3 construct: host or cells: Sf9 (Spodoptera frugiperda)
T3 sequence (Q14432 whole entry): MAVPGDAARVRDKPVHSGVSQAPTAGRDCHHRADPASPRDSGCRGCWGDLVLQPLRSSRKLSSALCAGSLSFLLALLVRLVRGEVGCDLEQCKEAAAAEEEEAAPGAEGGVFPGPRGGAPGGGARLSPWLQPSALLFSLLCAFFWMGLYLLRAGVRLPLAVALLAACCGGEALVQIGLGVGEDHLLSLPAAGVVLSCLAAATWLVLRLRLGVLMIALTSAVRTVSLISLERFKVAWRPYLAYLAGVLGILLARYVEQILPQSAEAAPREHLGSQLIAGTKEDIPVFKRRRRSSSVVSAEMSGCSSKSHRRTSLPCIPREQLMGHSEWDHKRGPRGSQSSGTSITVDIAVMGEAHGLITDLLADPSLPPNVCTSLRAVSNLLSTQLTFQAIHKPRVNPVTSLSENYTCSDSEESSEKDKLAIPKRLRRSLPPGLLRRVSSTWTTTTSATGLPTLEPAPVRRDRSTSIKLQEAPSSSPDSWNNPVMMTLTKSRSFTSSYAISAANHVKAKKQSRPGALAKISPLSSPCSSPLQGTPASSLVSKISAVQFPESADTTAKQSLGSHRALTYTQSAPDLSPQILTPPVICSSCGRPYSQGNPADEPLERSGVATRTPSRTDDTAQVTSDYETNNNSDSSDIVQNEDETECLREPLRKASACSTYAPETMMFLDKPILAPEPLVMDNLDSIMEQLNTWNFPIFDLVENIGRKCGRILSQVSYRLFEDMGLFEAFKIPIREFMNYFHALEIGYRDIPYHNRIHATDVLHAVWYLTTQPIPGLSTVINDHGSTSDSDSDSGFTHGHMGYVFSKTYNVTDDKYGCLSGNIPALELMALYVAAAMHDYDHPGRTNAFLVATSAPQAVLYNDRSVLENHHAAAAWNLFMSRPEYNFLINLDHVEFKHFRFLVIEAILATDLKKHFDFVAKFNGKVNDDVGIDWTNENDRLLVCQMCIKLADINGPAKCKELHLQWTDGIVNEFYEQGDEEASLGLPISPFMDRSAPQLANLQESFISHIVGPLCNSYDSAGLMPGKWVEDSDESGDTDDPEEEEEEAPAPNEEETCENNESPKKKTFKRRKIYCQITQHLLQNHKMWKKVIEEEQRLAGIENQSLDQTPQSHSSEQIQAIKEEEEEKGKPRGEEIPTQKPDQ
Protocol: Evaluation of the effects of compounds on the activity of the human phosphodiesterase-3A is quantified by measuring the formation of 5′AMP from cAMP using a human recombinant enzyme expressed in a clonal isolate of Spodoptera frugiperda cells (Sf9) cells.
The test compound, reference compound or water (control) are added to a buffer containing 40 mM tris(hydroxymethyl)aminomethane (Tris)/HCl (pH 7.4) and 8 mM MgCl2, 450 nMcAMP and 0.25 μCi [^3H]cAMP.
Thereafter, the reaction is initiated by addition of the enzyme (about 1 U) and the mixture is incubated for 20 min at 22° C.
For basal control measurements, the enzyme is omitted from the reaction mixture.
Following incubation SPA beads are added. After 30 min at 22° C. under shaking, the amount of [^3H]5′AMP is quantified with a scintillation counter (Topcount, Packard).
The results are expressed as a percent inhibition of the control enzyme activity. The standard inhibitory reference compound is milrinone (CAS number 78415-72-2), which is tested in each experiment at several concentrations to obtain an inhibition curve from which its IC50 value is calculated.

T1 sequence (P43220 24-463 L260F): as the sequence (P43220 24-463) above, with L237F counted along it

Compound | EC50 (human GLP-1R receptor) | EC50 (GLP-1R) | IC50 [1]
2-(((1R,5S6R)-6-((R*)-2-(5-Chloropyridin-2-yl)-5-fluoro-2-methylbenzo[d][1,3]dioxol-4-yl)-3-azabicyclo[3.1.0]hexan-3-yl)methyl)-4-fluoro-1-(((S)-oxetan-2-yl)methyl)-1H-benzo[d]imidazole-6-carboxylic acid [Example 10a] | 19 nM | 13 nM | > 100000 nM
C[C@@]1(c2ccc(Cl)cn2)Oc2cccc([C@H]3[C@@H]4CN(Cc5nc6c(F)cc(C(=O)O)cc6n5CCn5cccn5)C[C@@H]43)c2O1 (single isomer, unassigned) [Example 7, 1-(2-(1H-Pyrazol-1-yl)ethyl)-2-(((1R,5S,6s)-6-((R*)-2-(5-chloropyridin-2-yl)-2-methylbenzo[d][1,3]dioxol-4-yl)-3-azabicyclo[3.1.0]hexan-3-yl)methyl)-4-fluoro-1H-benzo[d]imidazole-6-carboxylic acid] | 260 nM | 150 nM | 
CC1(c2ccc(Cl)cc2F)Oc2cccc([C@H]3[C@@H]4CN(Cc5nc6ccc(C(=O)O)cc6n5CC5CCO5)C[C@@H]43)c2O1 (stereo partly drawn) [Example 1, 2-(((1R,5S,6R)-6-(2-(4-Chloro-2-fluorophenyl)-2-methylbenzo[d][1,3]dioxol-4-yl)-3-azabicyclo[3.1.0]hexan-3-yl)methyl)-1-(((S)-oxetan-2-yl)methyl)-1H-benzo[d]imidazole-6-carboxylic acid] | 180 nM | 69 nM | 
CC1(c2ccc(Cl)cn2)Oc2cccc([C@H]3[C@@H]4CN(Cc5nc6ccc(C(=O)O)cc6n5CC5CCO5)C[C@@H]43)c2O1 (stereo partly drawn) [Example 3, 2-(((1R,5S,6R)-6-(2-(5-Chloropyridin-2-yl)-2-methylbenzo[d][1,3]dioxol-4-yl)-3-azabicyclo[3.1.0]hexan-3-yl)methyl)-1-(((S)-oxetan-2-yl)methyl)-1H-benzo[d]imidazole-6-carboxylic acid] | 260 nM | 170 nM | 
N#Cc1ccc(COc2cccc(C3CCN(Cc4nc5ccc(C(=O)O)cc5n4C[C@@H]4CCO4)CC3)n2)c(F)c1 [Ref Comp B, reference compound] |  |  | 11000 nM

The remaining lines, values ahead:

EC50 (human GLP-1R receptor) | EC50 (GLP-1R) | IC50 [1] | Compound
14 nM | 15 nM | > 10000 nM | COc1cc(C(=O)O)cc2c1nc(CN1C[C@@H]3[C@H](C1)[C@H]3c1cccc3c1O[C@](C)(c1ccc(Cl)cc1F)O3)n2CC1CCO1 (relative stereo) [Example 2, 2-(((1R,5S,6R)-6-((R*)-2-(4-Chloro-2-fluorophenyl)-2-methylbenzo[d][1,3]dioxol-4-yl)-3-azabicyclo[3.1.0]hexan-3-yl)methyl)-4-methoxy-1-(((S)-oxetan-2-yl)methyl)-1H-benzo[d]imidazole-6-carboxylic acid]
30 nM | 7.5 nM |  | CCn1cncc1Cn1c(CN2C[C@@H]3[C@H](C2)[C@H]3c2cccc3c2O[C@](C)(c2ccc(Cl)cn2)O3)nc2c(Cl)cc(C(=O)O)cc21 (single isomer, unassigned) [Example 12, 4-Chloro-2-(((1R,5S,6s)-6-((R*)-2-(5-chloropyridin-2-yl)-2-methylbenzo[d][1,3]dioxol-4-yl)-3-azabicyclo[3.1.0]hexan-3-yl)methyl)-1-((1-ethyl-1H-imidazol-5-yl)methyl)-1H-benzo[d]imidazole-6-carboxylic acid]
31 nM | 19 nM |  | COc1cc(C(=O)O)cc2c1nc(CN1C[C@@H]3[C@H](C1)[C@H]3c1c(F)ccc3c1OC(C)(c1ccc(Cl)cn1)O3)n2C[C@@H]1CCO1 (stereo partly drawn) [Example 6, 2-(((1R,5S,6R)-6-(2-(5-Chloropyridin-2-yl)-5-fluoro-2-methylbenzo[d][1,3]dioxol-4-yl)-3-azabicyclo[3.1.0]hexan-3-yl)methyl)-4-methoxy-1-(((S)-oxetan-2-yl)methyl)-1H-benzo[d]imidazole-6-carboxylic acid]

Reference: patent US20250042882A1, “CERTAIN 3-AZABICYCLO[3.1.0]HEXANES AS GLP-1 RECEPTOR MODULATORS” (AstraZeneca AB, priority 2021, published 2025)
